Reference: patent US20070128217A1 (priority 2003, published 2007)

How the values were obtained:
[1] = tested on: rabbit serum obtained by immunizing a rabbit with the SARS-CoV strain Frankfurt 1; assay type: binding; set-up: Binding of a rabbit serum to linear peptides / Binding of a rabbit serum to looped peptides / Rabbit serum linear peptides / Rabbit serum looped peptides / Binding of a rabbit serum to linear peptides of protein N of SARS-CoV Urbani (Rabbit serum linear peptides) / Binding of a rabbit serum to looped/cyclic peptides of protein N of SARS-CoV Urbani (Rabbit serum looped peptides): unit not given here
[2] = tested on: recombinant human anti-SARS-CoV antibody 03-018; assay type: binding; set-up: Binding of antibody 03-018 to linear peptides of the N protein of SARS-CoV Urbani / Binding of antibody 03-018 to looped/cyclic peptides of the N protein of SARS-CoV Urbani: unit not given here
[3] = tested on: control sera (pooled serum of ten healthy LUMC hospital workers; commercial negative donor pooled serum from the Dutch bloodbank); assay type: binding, human; set-up: Binding of Control serum LUMC to linear peptides / Binding of Control serum Blood-bank to linear peptides / Binding of Control serum LUMC to looped peptides / Binding of Control Serum Blood-Bank to Looped peptides / Binding of Control serum LUMC to linear peptides of the protein M of SARS-CoV Urbani / Binding of Control serum Blood-bank to linear peptides of the protein M of SARS-CoV Urbani / Binding of Control serum LUMC to looped peptides of the protein M of SARS-CoV Urbani / Binding of Control Serum Blood-Bank to Looped peptides of the protein M of SARS-CoV Urbani: unit not given here
[4] = tested on: antibodies in sera from SARS patients (sera 1a, 1b, 2, 6, 37, 62, London, SARS-yellow, SARS-green); assay type: binding, human; set-up: Binding of serum 6 to linear peptides of protein X1 of SARS-CoV Urbani / Binding of serum 37 to linear peptides of protein X1 of SARS-CoV Urbani / Binding of serum 6 to looped/cyclic peptide (PEPSCAN-ELISA) / Binding of serum 37 to looped/cyclic peptide (PEPSCAN-ELISA) / Binding of serum 37 to looped/cyclic peptides of protein X1 of SARS-CoV Urbani / Binding of serum 6 to linear peptides of protein X2 / Binding of serum 37 to linear peptides of protein X2 / Binding of serum 37 to looped/cyclic peptides of protein X2 of SARS-CoV Urbani / Binding of serum 6 to linear peptides of protein M of SARS-CoV Urbani / Binding of serum 37 to linear peptides of protein M of SARS-CoV Urbani / Binding of serum 6 to looped/cyclic peptides of protein M of SARS-CoV Urbani / Binding of serum 37 to looped/cyclic peptides of protein M of SARS-CoV Urbani / Binding of serum 6 to linear peptides of protein X3 of SARS-CoV Urbani / Binding of serum 37 to linear peptides of protein X3 of SARS-CoV Urbani / Binding of serum 37 to looped/cyclic peptides of protein X3 of SARS-CoV Urbani / Binding of serum 6 to linear peptides of protein X4 of SARS-CoV Urbani / Binding of serum 37 to linear peptides of protein X4 of SARS-CoV Urbani / Binding of serum 37 to looped/cyclic peptides of protein X4 of SARS-CoV Urbani / Binding of serum 6 to linear peptides of protein X5 of SARS-CoV Urbani / Binding of serum 37 to linear peptides of protein X5 of SARS-CoV Urbani / Binding of serum 37 to looped/cyclic peptides of protein X5 of SARS-CoV Urbani / Binding of serum 6 to linear peptides of protein N of SARS-CoV Urbani / Binding of serum 37 to linear peptides of protein N of SARS-CoV Urbani / Binding of serum 6 to linear peptide (PEPSCAN-ELISA) / Binding of serum 1a to looped/cyclic peptides of protein N of SARS-CoV Urbani / Binding of serum 1b to looped/cyclic peptides of protein N of SARS-CoV Urbani / Binding of serum 2 to looped/cyclic peptides of protein N of SARS-CoV Urbani / Binding of serum 6 to looped/cyclic peptides of protein N of SARS-CoV Urbani / Binding of serum 37 to looped/cyclic peptides of protein N of SARS-CoV Urbani / Binding of serum 62 to looped/cyclic peptides of protein N of SARS-CoV Urbani / Binding of serum London to looped/cyclic peptides of protein N of SARS-CoV Urbani / Binding of serum SARS-green to looped/cyclic peptides of protein N of SARS-CoV Urbani: unit not given here

Sequence	Binding of a rabbit serum to linear peptides of protein N of SARS-CoV Urbani (Rabbit serum linear peptides) [1]	Binding of a rabbit serum to looped/cyclic peptides of protein N of SARS-CoV Urbani (Rabbit serum looped peptides) [1]	Binding of antibody 03-018 to linear peptides of the N protein of SARS-CoV Urbani [2]	Binding of antibody 03-018 to looped/cyclic peptides of the N protein of SARS-CoV Urbani [2]	Binding of serum 1a to linear peptides of protein N of SARS-CoV Urbani [4]	Binding of serum 1a to looped/cyclic peptides of protein N of SARS-CoV Urbani [4]	Binding of serum 1b to linear peptides of protein N of SARS-CoV Urbani [4]	Binding of serum 1b to looped/cyclic peptides of protein N of SARS-CoV Urbani [4]	Binding of serum 2 to linear peptides of protein N of SARS-CoV Urbani [4]	Binding of serum 2 to looped/cyclic peptides of protein N of SARS-CoV Urbani [4]	Binding of serum 6 to linear peptides of protein N of SARS-CoV Urbani [4]	Binding of serum 6 to looped/cyclic peptides of protein N of SARS-CoV Urbani [4]	Binding of serum 37 to linear peptides of protein N of SARS-CoV Urbani [4]	Binding of serum 37 to looped/cyclic peptides of protein N of SARS-CoV Urbani [4]	Binding of serum 62 to linear peptides of protein N of SARS-CoV Urbani [4]	Binding of serum 62 to looped/cyclic peptides of protein N of SARS-CoV Urbani [4]	Binding of serum London to linear peptides of protein N of SARS-CoV Urbani [4]	Binding of serum London to looped/cyclic peptides of protein N of SARS-CoV Urbani [4]	Binding of serum SARS-green to linear peptides of protein N of SARS-CoV Urbani [4]	Binding of serum SARS-green to looped/cyclic peptides of protein N of SARS-CoV Urbani [4]	further results
LQNSMSGASADSTQA	0.9	0.4	0.2	0.2	0.2	0.2	0.1	0.1	0.1	0.4	0.2	0.0	0.6	0.5	0.4	0.1	0.6	0.1	0.4	0.0	Control Serum Blood-Bank Looped peptides [3]: 0.0; Control serum Blood-bank linear peptides [3]: 0.7; Control serum LUMC linear peptides [3]: 0.5; Control serum LUMC looped peptides [3]: 0.2; Binding of serum SARS-yellow to linear peptides of protein N of SARS-CoV Urbani [4]: 0.6; Binding of serum SARS-yellow to looped/cyclic peptides of protein N of SARS-CoV Urbani [4]: 0.0
LRFPRGQGVPINTNS	0.2	0.6	0.1	0.2	0.2	0.3	0.1	0.2	0.3	0.4	0.2	0.2	0.6	0.6	0.6	0.4	0.5	0.4	0.4	0.6	Binding of Control Serum Blood-Bank to Looped peptides [3]: 0.6; Binding of Control serum Blood-bank to linear peptides [3]: 0.7; Binding of Control serum LUMC to linear peptides [3]: 0.7; Binding of Control serum LUMC to looped peptides [3]: 0.6; Binding of serum SARS-yellow to linear peptides of protein N of SARS-CoV Urbani [4]: 0.5; Binding of serum SARS-yellow to looped/cyclic peptides of protein N of SARS-CoV Urbani [4]: 0.4
LSPRWYFYYLGTGPE	0.2	1.1	0.1	0.2	0.3	0.3	0.3	0.3	0.2	0.5	0.2	0.2	1.0	0.8	0.9	0.8	0.5	0.3	0.9	0.6	Binding of Control Serum Blood-Bank to Looped peptides [3]: 0.5; Binding of Control serum Blood-bank to linear peptides [3]: 0.7; Binding of Control serum LUMC to linear peptides [3]: 0.8; Binding of Control serum LUMC to looped peptides [3]: 0.6; Binding of serum SARS-yellow to linear peptides of protein N of SARS-CoV Urbani [4]: 0.6; Binding of serum SARS-yellow to looped/cyclic peptides of protein N of SARS-CoV Urbani [4]: 0.5
